Test results reported in patent US20090270342A1, “IMMUNOREGULATORY AGENT” (priority 2006, published 2009).

Tests used:
Type in all cases: in vivo
[1] = system: anti-OVA-IgE, IgG1, IgG2a in serum; assay: Anti-OVA antibody in serum of OVA/alum-sensitized mice (Experiment 4); conditions: for Anti-OVA-IgG1 in serum / Anti-OVA-IgG2a in serum / Anti-OVA-IgG1 in serum, relative value to control / Anti-OVA-IgG2a in serum, relative value to control: two weeks after the second sensitization
Experimental: (§1) In order to investigate the effect of lactosucorse on systemic immunity, antibody level in serum was measured. Similarly as in Experiment 1, female BALB/c mice (six weeks old) were preliminary reared for one week on “AIN-93G”, the same standard purified diet as used in Experiment 1. Successively, “NYU-KA OLIGO 700”, a saccharide composition comprising 71.4% (w/w), on a dry solid basis, of lactosucrose commercialized by Hayashibara Shoji Inc., Okayama, Japan, was incorporated into the above purified diet, in which corn starch equal to the amount of the saccharide composition comprising lactosucrose had been removed, to give a lactosucrose content of 2% (w/w) or 5% (w/w), and five to seven mice/group were allowed to ingest the resulting test diet freely. Mice, allowed to ingest “AIN-93G”, as the standard purified diet, were used as control. At 10 days after from starting the administration of the test diet, mice were sensitized to antigen by administrating 20 μg of ovalbumin (OVA) (grade V, commercialized by Sigma Corporation) as antigen and 4.5 mg of “IMJECT®”, alum commercialized by Pierce ThermoScientific as adjuvant, into the peritoneal cavity. Successively, 15 days after from the first sensitization, the second sensitization was carried out by the same procedure. The blood was collected from caudal vein of mice at one, two, and three weeks after from the second sensitization, the serum was collected by centrifugation, and the amount of IgE to OVA was measured by EIA. In the cases of IgG1 and IgG2a, the amount of antibody was measured using serum collected at two weeks after from the second sensitization. The IgE and IgG2a titers were measured by capture EIA and IgG1 titer was measured by indirect EIA. Each titer was calculated by calibration curve prepared by using anti-OVA mouse serum (IgE: 1.760 U/ml, IgG1: 128,000 U/ml, IgG2a: 7,040 u/ml) as a standard serum. The amounts of IgE at one, two, or three weeks after from the second sensitization are in Table 5, and the amounts of IgG1 and IgG2a of two weeks after from the second sensitization are in Table 6. The percentages in parentheses in tables mean a relative value to the antibody concentration in serum of the control mice.

[2] = system: anti-OVA-IgE, IgG1, IgG2a in serum; assay: Induction of anti-OVA antibodies by third OVA sensitization in already sensitive mice (Experiment 7); conditions: for Anti-OVA-IgE in serum / Anti-OVA-IgG1 in serum / Anti-OVA-IgG2a in serum: two weeks after third sensitization of OVA-sensitive mice; for Anti-OVA-IgE in serum, relative to control / Anti-OVA-IgG1 in serum, relative to control / Anti-OVA-IgG2a in serum, relative to control: after third sensitization
Experimental: as §1
Considering the application of lactosucrose to allergic patients, mice which had been made sensitive to OVA by sensitizing with OVA were prepared and the suppressing effect of lactosucrose on the production of anti-OVA-IgE when exposed to OVA was investigated by allowing the above mice to ingest lactosucrose. Female BALB/c mice (six weeks old, five mice/group) were preliminary reared for one week on “AIN-93G”, the same standard purified diet as used in Experiment 1. Successively, similarly as in Experiment 4, 20 μg of OVA, and 4.5 mg of alum were administrated to the peritoneal cavity of the mice and further reared for two weeks on the above standard diet. Then, the second sensitization of OVA and alum was carried out by the same procedure as used in the first sensitization. After two weeks, the mice were reared for further six weeks on the test diet comprising 2% (w/w) or 5% (w/w) lactosucrose, used in Experiment 1. After checking the mice being sensitive to OVA by measuring the amount of IgE, OVA and alum were administrated to them by the same procedure as used in the first and second sensitizations. After rearing two weeks on the test diet, blood was collected from respective mice and the concentrations of anti-OVA-IgE, anti-OVA-IgG1, and anti-OVA-IgG2a were determined by the same method as used in Experiment 4.

[3] = system: anti-Cry j 1-IgE, IgG1 in serum; assay: Anti-Cry j 1 antibody in serum of Cry j 1/alum-sensitized mice (Experiment 5); conditions: for Anti-Cry J 1-IgG1 in serum / Anti-Cry J 1-IgG1 in serum, relative to control: two weeks after the second sensitization
Experimental: as §1
In order to investigate the usefulness of lactosucrose ingestion for preventing or treating allergy to cedar pollen, the effect of lactosucrose for suppressing the production of IgE, caused by Cry j 1, a cedar pollen allergen, was investigated as follows. Except for using 20 μg of “PURIFIED CEDAR POLLEN ALLERGEN Cry j 1”, Cry j 1 commercialized by Seikagaku Corporation, Tokyo, Japan, as a substitute for OVA, the experiment was carried out by the same procedure as in Experiment 4, and the amount of anti-Cry j 1-IgE was measured at one and two weeks after the second sensitization. Further, the amount of anti-Cry j 1-IgG1 was also measured at two weeks after the second sensitization. The amounts of anti-Cry j 1-IgE and anti-Cry j 1-IgG1 were measured by the same procedure as in Experiment 4 except for using “PURIFIED CEDAR POLLEN ALLERGEN Cry j 1-Biotin”, commercialized by Seikagaku Corporation, Tokyo, Japan, as a solid phase. The results for IgE and IgG1 are in Tables 7 and 8, respectively.

[4] = Lactosucrose 2% (w/w) diet, one week after the 2nd sensitization
[5] = Lactosucrose 2% (w/w) diet, two weeks after the 2nd sensitization
[6] = Lactosucrose 2% (w/w), one week after the 2nd sensitization
[7] = Lactosucrose 2% (w/w), two weeks after the 2nd sensitization
[8] = Lactosucrose 5% (w/w) diet, one week after the 2nd sensitization
[9] = Lactosucrose 5% (w/w) diet, two weeks after the 2nd sensitization
[10] = Lactosucrose 5% (w/w), one week after the 2nd sensitization
[11] = Lactosucrose 5% (w/w), two weeks after the 2nd sensitization
[12] = Lactosucrose 5% (w/w), listed as lactosucrose

OC[C@H]1O[C@@H](O[C@H]2[C@H](O)[C@@H](O)[C@@H](O[C@]3(CO)O[C@H](CO)[C@@H](O)[C@@H]3O)O[C@@H]2CO)[C@H](O)[C@@H](O)[C@H]1O [Lactosucrose, β-D-galactosyl-(1,4)-α-D-glucosyl-(1,2)-β-D-fructoside]
Anti-OVA-IgE in serum [1, 4]: 270 ± 160 U/ml
Anti-OVA-IgE in serum ([1]; Lactosucrose 2% (w/w) diet, three weeks after the 2nd sensitization): 110 ± 62 U/ml
Anti-OVA-IgE in serum [1, 5]: 150 ± 35 U/ml
Anti-OVA-IgG1 in serum ([1]; Lactosucrose 2% (w/w) diet): 27 ± 10 ×10^4 U/ml
Anti-OVA-IgG2a in serum ([1]; Lactosucrose 2% (w/w) diet): 4.0 ± 3.4 ×10^4 U/ml
Anti-OVA-IgE in serum, relative value to control [1, 6]: (87%)
Anti-OVA-IgE in serum, relative value to control ([1]; Lactosucrose 2% (w/w), three weeks after the 2nd sensitization): (52%)
Anti-OVA-IgE in serum, relative value to control [1, 7]: (58%)
Anti-OVA-IgG1 in serum, relative value to control ([1]; Lactosucrose 2% (w/w)): (68%)
Anti-OVA-IgG2a in serum, relative value to control ([1]; Lactosucrose 2% (w/w)): (41%)
Anti-OVA-IgE in serum [1, 8]: 290 ± 77 U/ml
Anti-OVA-IgE in serum ([1]; Lactosucrose 5% (w/w) diet, three weeks after the 2nd sensitization): 160 ± 57 U/ml
Anti-OVA-IgE in serum [1, 9]: 120 ± 32 U/ml
Anti-OVA-IgG1 in serum ([1]; Lactosucrose 5% (w/w) diet): 28 ± 7.5 ×10^4 U/ml
Anti-OVA-IgG2a in serum ([1]; Lactosucrose 5% (w/w) diet): 4.8 ± 3.8 ×10^4 U/ml
Anti-OVA-IgE in serum, relative value to control [1, 10]: (94%)
Anti-OVA-IgE in serum, relative value to control ([1]; Lactosucrose 5% (w/w), three weeks after the 2nd sensitization): (48%)
Anti-OVA-IgE in serum, relative value to control [1, 11]: (46%)
Anti-OVA-IgG1 in serum, relative value to control ([1]; Lactosucrose 5% (w/w)): (70%)
Anti-OVA-IgG2a in serum, relative value to control ([1]; Lactosucrose 5% (w/w)): (49%)
Anti-OVA-IgE in serum ([2]; Lactosucrose 2% (w/w) diet): 1,450 ± 561 U/ml
Anti-OVA-IgG1 in serum ([2]; Lactosucrose 2% (w/w) diet): 678 ± 176 ×10^4 U/ml
Anti-OVA-IgG2a in serum ([2]; Lactosucrose 2% (w/w) diet): 12.4 ± 5.02 ×10^4 U/ml
Anti-OVA-IgE in serum, relative to control ([2]; Lactosucrose 2% (w/w)): (72%)
Anti-OVA-IgG1 in serum, relative to control ([2]; Lactosucrose 2% (w/w)): (111%)
Anti-OVA-IgG2a in serum, relative to control ([2]; Lactosucrose 2% (w/w)): (120%)
Anti-OVA-IgE in serum, relative to control ([2]; Lactosucrose 2% (w/w), listed as lactosucrose): 72%
Anti-OVA-IgE in serum ([2]; Lactosucrose 5% (w/w) diet): 1,250 ± 264 U/ml
Anti-OVA-IgG1 in serum ([2]; Lactosucrose 5% (w/w) diet): 365 ± 35.1 ×10^4 U/ml
Anti-OVA-IgG2a in serum ([2]; Lactosucrose 5% (w/w) diet): 5.77 ± 1.93 ×10^4 U/ml
Anti-OVA-IgE in serum, relative to control ([2]; Lactosucrose 5% (w/w)): (62%)
Anti-OVA-IgG1 in serum, relative to control ([2]; Lactosucrose 5% (w/w)): (60%)
Anti-OVA-IgG2a in serum, relative to control ([2]; Lactosucrose 5% (w/w)): (56%)
Anti-OVA-IgE in serum, relative to control [2, 12]: 62%
Anti-OVA-IgG1 in serum, relative to control [2, 12]: about 50%
Anti-OVA-IgG2a in serum, relative to control [2, 12]: about 50%
Anti-Cry j 1-IgE in serum [3, 4]: 351 ± 277 U/ml
Anti-Cry j 1-IgE in serum [3, 5]: 239 ± 180 U/ml
Anti-Cry J 1-IgG1 in serum ([3]; Lactosucrose 2% (w/w) diet): 10.3 ± 6.01 ×10^4 U/ml
Anti-Cry j 1-IgE in serum, relative to control [3, 6]: (44%)
Anti-Cry j 1-IgE in serum, relative to control ([3]; Lactosucrose 2% (w/w), one week after the 2nd sensitization, listed as lactosucrose): 44%
Anti-Cry j 1-IgE in serum, relative to control [3, 7]: (23%)
Anti-Cry j 1-IgE in serum, relative to control ([3]; Lactosucrose 2% (w/w), two weeks after the 2nd sensitization, listed as lactosucrose): 23%
Anti-Cry J 1-IgG1 in serum, relative to control ([3]; Lactosucrose 2% (w/w)): (80%)
Anti-Cry j 1-IgE in serum [3, 8]: 620 ± 157 U/ml
Anti-Cry j 1-IgE in serum [3, 9]: 404 ± 114 U/ml
Anti-Cry J 1-IgG1 in serum ([3]; Lactosucrose 5% (w/w) diet): 7.51 ± 2.89 ×10^4 U/ml
Anti-Cry j 1-IgE in serum, relative to control [3, 10]: (77%)
Anti-Cry j 1-IgE in serum, relative to control [3, 11]: (38%)
Anti-Cry J 1-IgG1 in serum, relative to control ([3]; Lactosucrose 5% (w/w)): (58%)
